test system: Alternaria brassicae; assay: In vivo test on Alternaria brassicae (radish plants, preventive spray); settings: dose of 110 ppm, radish plants (Pernot variety), contaminated 24 hours after treatment, grading 6 to 7 days after contamination vs control plants, read-out: protection (good (at least 50%) to total)
Protocol: The active ingredient tested is prepared by potter homogenisation in a concentrated suspension type formulation at 100 g/l. This suspension is then diluted with water to obtain the desired active material concentration.
Radish plants (Pernot variety) in starter cups, sown on a 50/50 peat soil-pozzolana substrate and grown at 18-20° C., are treated at the cotyledon stage by spraying with the aqueous suspension described above.
Plants, used as controls, are treated with an aqueous solution not containing the active material.
After 24 hours, the plants are contaminated by spraying them with an aqueous suspension of Alternaria brassicae spores (40,000 spores per cm^3). The spores are collected from a 12-13-day-old culture.
The contaminated radish plants are incubated for 6-7 days at about 18° C., under a humid atmosphere.
Grading is carried out 6 to 7 days after the contamination, in comparison with the control plants.

SMILES | pest or weed control at 110 ppm [%]
Cc1ccsc1CCNC(=O)c1ccccc1C(F)F [Compound A-1] | ≥ 50
Cc1nc(CCNC(=O)c2ccccc2C(F)(F)F)sc1C [Compound B-2] | ≥ 50
COc1cc(C(F)(F)F)nn1CCNC(=O)c1ccccc1Br [Compound E-1] | ≥ 50

same assay, conditions: dose of 330 ppm, radish plants (Pernot variety), contaminated 24 hours after treatment, grading 6 to 7 days after contamination vs control plants, read-out: protection (good (at least 50%) to total)

SMILES | pest or weed control at 330 ppm [%]
Cc1ccccc1C(=O)NCCc1cn(C)nc1C(F)(F)F [Compound D-5] | ≥ 50
Cc1csc(CCNC(=O)c2ccccc2C(F)(F)F)n1 [Compound B-1] | ≥ 50
Cc1nc(C)c(CCNC(=O)c2ccccc2Br)s1 [Compound C-2] | ≥ 50
O=C(NCCc1sccc1Cl)c1ccccc1C(F)(F)F [Compound A-5] | ≥ 50
O=C(NCCc1sccc1Cl)c1ccccc1Br [Compound A-7] | ≥ 50
Cn1cc(CCNC(=O)c2ccccc2Cl)c(C(F)(F)F)n1 [Compound D-4] | ≥ 50
Cn1cc(CCNC(=O)c2ccccc2C(F)(F)F)c(C(F)(F)F)n1 [Compound D-1] | ≥ 50

Source: patent US7888289B2, “Heterocyclylethylbenzamide derivatives” (Bayer Cropscience AG, priority 2005, dated 2011)
